Measured values taken from patent US8309768B2, “FTY720-derived anticancer agents” (The Ohio State University Research Foundation, priority 2010, dated 2012).

Experiments:
human recombinant SphK2 = biological target: T1, human recombinant SphK2 (Homo sapiens, UniProt Q9NRA0); test: Phosphorylation of FTY720 and OSU-2S by SphK2 (radiometric, TLC); type: biochemical; conditions: 5 μM compound, [γ-32P]-ATP, 37° C., 60 min, TLC/autoradiography
T1 construct: purchased Cayman
T1 sequence (Q9NRA0 1-654): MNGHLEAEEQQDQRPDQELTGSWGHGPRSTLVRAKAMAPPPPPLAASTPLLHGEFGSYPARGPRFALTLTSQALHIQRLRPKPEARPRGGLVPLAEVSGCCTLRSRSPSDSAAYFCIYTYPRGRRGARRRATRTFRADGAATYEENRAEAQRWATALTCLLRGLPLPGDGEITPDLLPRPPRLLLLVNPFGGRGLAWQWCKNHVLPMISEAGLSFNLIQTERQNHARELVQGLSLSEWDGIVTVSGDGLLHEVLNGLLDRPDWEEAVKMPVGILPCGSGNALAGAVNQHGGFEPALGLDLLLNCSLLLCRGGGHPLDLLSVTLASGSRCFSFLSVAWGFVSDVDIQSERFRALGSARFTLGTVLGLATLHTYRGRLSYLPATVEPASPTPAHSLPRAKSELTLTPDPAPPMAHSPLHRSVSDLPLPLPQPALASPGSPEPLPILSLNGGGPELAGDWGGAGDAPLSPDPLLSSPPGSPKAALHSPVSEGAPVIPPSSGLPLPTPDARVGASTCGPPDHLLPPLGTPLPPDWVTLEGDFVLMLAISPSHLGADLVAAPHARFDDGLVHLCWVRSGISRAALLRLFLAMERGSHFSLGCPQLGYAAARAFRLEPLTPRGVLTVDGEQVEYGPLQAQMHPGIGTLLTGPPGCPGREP
Method: Phosphorylation of FTY720 and OSU-2S by SphK2. Analysis of SphK2-mediated phosphorylation was performed as reported with modifications. Prieschl […] J Exp Med, 190, 1-8 (1999). Briefly, 5 μM FTY720 or OSU-2S was incubated with 0.75 μg/ml human recombinant SphK2 (Cayman), 5 μCi [γ-^32P]-ATP, and 0.5 mM cold ATP at 37° C. for 60 min. The reaction products were separated by silica-gel thin layer chromatography (TLC) and visualized by autoradiography.

Hep3B cells = test: MTT cell viability assay, Hep3B; type: cell-based; conditions: Homo sapiens, 24 h of treatment
Method: (§1) Cell lines, culture and reagents. The HCC cell lines Hep3B, PLC5 and Huh7, as well as primary nonmalignant human hepatocytes were used in this study. Cancer cells were cultured in Dulbecco's Modified Eagle's medium (DMEM) supplemented with 10% fetal bovine serum (FBS). Hepatocytes were maintained in defined Hepatocyte Culture Medium. […] Various polyclonal and monoclonal antibodies were used for western blotting, immunocytochemical, and flow cytometric analyses.
(§2) Cell viability assay. Cell viability was assessed by 3-(4,5-dimethylthiazol-2-yl)-2,5-diphenyl-2H-tetrazolium bromide (MTT) assays in six replicates. Cells were seeded (4,000 cells/well; 96-well plate) for 24 h and treated with test agents in 5% FBS-supplemented DMEM. After treatment, cells were incubated in medium containing 0.5 mg/ml MTT (37° C., 2 h). Reduced MTT was dissolved in DMSO (200 μL/well) and absorbances measured at 570 nm.

PLC5 cells = test: MTT cell viability assay, PLC5; type: cell-based; conditions: 24 h of treatment
Method: as §1, §2

[1] = test system: subcutaneous Hep3B tumors; test: Ectopic (subcutaneous) Hep3B xenograft tumor model; type: in vivo, athymic nude mice
Method: Xenograft tumor models. Ectopic tumors were established in athymic nude mice by subcutaneous injection of 1×10^6 Hep3B cells in a total volume of 0.1 ml of serum-free medium containing 50% Matrigel. Mice with established tumors were randomized to five groups (n=8) that received daily i.p. injections of OSU-2S or FTY720 at 5 or 10 mg/kg, or the vehicle. Tumor burdens were determined weekly using calipers (volume=width^2×length×0.52). Body weights were measured weekly. At the study endpoint, tumors were harvested, snap-frozen and stored at −80° C. for biomarker analysis. Blood and tissues were collected for evaluation of complete blood counts, serum chemistry and histopathology.

[2] = test system: orthotopic Hep3B-luc tumors; test: Orthotopic Hep3B-luc xenograft tumor model; type: in vivo, athymic nude mice; parameters: dose or concentration left out as unconfirmed; conditions: end of treatment (42 days)
Description: Orthotopic tumors were established by direct intrahepatic injection of luciferase-expressing Hep3B (Hep3B-luc) cells as described. Omar et al., Mol Pharmacol, 76, 957-968 (2009). The establishment and growth of tumors were monitored by bioluminescent imaging using the IVIS™ imaging system (Xenogen, Alameda, Calif.). […] All animal use described in this manuscript was done in accordance with protocols approved by The Ohio State University Institutional Animal Care and Use Committee.

[3] = biological target: T2, PP2A (Serine/Threonine Phosphatase 2A) (Homo sapiens, UniProt P67775); test: PP2A functional enzymatic assay (malachite green) in primary CLL cells; type: cell-based; conditions: 24 hrs, OSU-2S 8 μM, untreated about 0.07
T2 construct: endogenous in cells; host or cells: primary CLL cells; Ramos cells
T2 sequence (P67775 whole entry): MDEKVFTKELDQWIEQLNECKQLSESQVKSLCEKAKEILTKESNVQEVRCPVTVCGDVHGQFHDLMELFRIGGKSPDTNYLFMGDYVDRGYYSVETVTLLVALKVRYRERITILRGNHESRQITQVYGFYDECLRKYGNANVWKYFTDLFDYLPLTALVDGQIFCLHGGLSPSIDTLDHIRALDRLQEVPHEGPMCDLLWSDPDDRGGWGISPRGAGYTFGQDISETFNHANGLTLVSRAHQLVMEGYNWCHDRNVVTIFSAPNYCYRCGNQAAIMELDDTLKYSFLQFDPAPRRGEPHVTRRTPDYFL
Method: The ability of OSU-2S to induce PP2A (Serine/Threonine Phosphatase 2A) activity in primary CLL cells was measured at 24 hrs by a functional enzymatic assay. Lysates made from OSU-2S 8 μM treated cells are used to immunoprecipitate PP2Ac which was then used as an enzyme to cleave the specific phosphor-peptide substrate in the functional assay. The cleaved free phosphates were measured by adding malachite green detection solutions and measuring the absorbance at A650 nm. Ramos cells were also included, and FTY720 was used as the control.

CLL cells = test: Western blot analysis in CLL cells (PARP, caspase 3, caspase 9); type: cell-based
Description: Western blot analysis as carried out to further observe the effects of OSU-2S in CLL cells. […] OSU-2S in CLL activates caspase, as evidenced by cleavage of poly (ADP-ribose) polymerase (PARP). Jurkat cell with or without UV irradiation were included as controls. […] OSU-2S was also shown to activate caspase 3 in CLL cells. […] Finally, OSU-2S activates caspase 9 in CLL.

SMILES: CCC[C@@](N)(CO)CCc1ccc(OCCCCCC(C)C)cc1 [OSU-2S, (S)-2-amino-2-(4-[(6-methylheptyl)-oxy]phenethyl)pentan-1-ol]
- phosphorylation by recombinant SphK2 (human recombinant SphK2): not phosphorylated
- IC50 (Hep3B cells): 2400 nM
- IC50 (PLC5 cells): 3500 nM
- ectopic Hep3B tumor growth vs vehicle control ([1]; 5 mg/kg, i.p. once daily, P<0.001): completely suppressed
- reduction of tumor volume ([1]; 10 mg/kg i.p. daily, end of 42-day treatment): more than 50%
- intratumoral biomarkers of drug activity ([1]; Hep3B tumor tissue homogenates, Western blot): PKCδ and caspase-3 were activated
- reduction in bioluminescent intensity [2]: 80%
- PP2A activity, absorbance at A650 nm [3]: about 0.20
- caspase 3 activation (CLL cells; 24 and 48 hours, products at about 16-18 kD): caspase 3 cleaved products
- PARP cleavage (CLL cells; 24 and 48 hours, vs untreated): higher levels of PARP
- caspase 9 activation (CLL cells; products at about 30-34 kD): caspase 9 cleaved products
